Active and inactive are the calls of the source. The rule behind the calls is not given here.
Assays:
[1] = target: Mitogen-activated protein kinase 14 (Homo sapiens, UniProt Q16539); assay: Inhibition of P38alpha (unknown origin)
[2] = Metabolic stability in human liver microsomes assessed as half life; type: ADME, Microsome
SH-SY5Y = assay: Cytotoxicity against human SH-SY5Y cells assessed as cell viability at 10 uM after 48 hrs by MTT assay relative to control; type: cell-based
[3] = Metabolic stability in mouse liver microsomes assessed as half life; type: ADME, Microsome
[4] = target: Mitogen-activated protein kinase 10 (Rattus norvegicus) (UniProt P49187); assay: Inhibition of JNK3 in rat primary neuron assessed as reduction in phosphorylation of APP at T688 residue at 10 nM incubated for 30 mins by Western blot analysis; conditions: dose nM 10, time 30.0 min
Mitogen-activated protein kinase 10 (Rattus norvegicus), sequence (P49187 whole entry): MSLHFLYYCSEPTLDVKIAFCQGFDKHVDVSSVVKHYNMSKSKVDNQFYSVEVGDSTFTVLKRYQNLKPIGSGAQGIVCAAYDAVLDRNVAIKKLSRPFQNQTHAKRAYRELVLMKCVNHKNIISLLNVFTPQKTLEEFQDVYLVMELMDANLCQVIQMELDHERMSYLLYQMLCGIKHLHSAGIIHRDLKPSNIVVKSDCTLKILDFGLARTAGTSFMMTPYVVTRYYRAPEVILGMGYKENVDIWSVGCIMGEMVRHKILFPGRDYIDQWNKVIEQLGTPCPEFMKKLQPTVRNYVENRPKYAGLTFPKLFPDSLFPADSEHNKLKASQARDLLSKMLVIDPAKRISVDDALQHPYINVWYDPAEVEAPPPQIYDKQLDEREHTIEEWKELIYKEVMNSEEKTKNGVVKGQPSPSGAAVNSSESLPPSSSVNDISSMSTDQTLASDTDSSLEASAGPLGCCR

[5] = Brain concentration in C57BL/6J mouse at 10 mg/kg, po measured after 1 hr by LC-MS/MS analysis; type: ADME, organism-based; conditions: read-out: Drug uptake
[6] = Plasma concentration in C57BL/6J mouse at 10 mg/kg, po measured after 1 hr by LC-MS/MS analysis; type: ADME, organism-based

Mitogen-activated protein kinase 14, sequence (Q16539 whole entry): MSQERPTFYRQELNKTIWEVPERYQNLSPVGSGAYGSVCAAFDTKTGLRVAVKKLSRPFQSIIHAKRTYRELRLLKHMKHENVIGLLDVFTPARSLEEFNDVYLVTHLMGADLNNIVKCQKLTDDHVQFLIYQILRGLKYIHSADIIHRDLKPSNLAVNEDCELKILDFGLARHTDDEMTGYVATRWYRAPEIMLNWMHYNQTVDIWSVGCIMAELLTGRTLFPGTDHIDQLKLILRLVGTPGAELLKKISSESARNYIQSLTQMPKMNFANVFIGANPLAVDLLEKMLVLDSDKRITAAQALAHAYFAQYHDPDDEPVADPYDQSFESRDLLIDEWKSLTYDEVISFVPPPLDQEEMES

IC50 [1] [µM]	t1/2 [2] [min]	t1/2 [3] [min]	inhibition [4]	concentration at 1 h [5] [nM]	concentration at 1 h [6] [nM]	Structure (SMILES)	Activity (SH-SY5Y) [%]
> 20						CN1CC[C@H](CNC(=O)c2cc(-n3cc(NC(=O)Nc4ccccc4Cl)cn3)cs2)C1	
	> 120	68	Active			O=C(Nc1cnn(-c2csc(C(=O)NC3COC3)c2)c1)Nc1ccc(F)cc1Cl	104
> 20						O=C(Nc1cnn(-c2csc(C(=O)N[C@@H]3CCNC3)c2)c1)Nc1ccccc1Cl	
	110	57				Cc1sc(C(=O)NC2COC2)cc1-n1cc(NC(=O)Nc2c(F)cccc2Cl)cn1	111
> 20						O=C(Nc1cnn(-c2csc(C(=O)NC[C@H]3CCOC3)c2)c1)Nc1ccccc1Cl	
		16				O=C(Nc1cnn(-c2csc(C(=O)NC3CCOCC3)c2)c1)Nc1ccccc1Cl	97
> 20						CN1CC[C@@H](NC(=O)c2cc(-n3cc(NC(=O)Nc4ccccc4Cl)cn3)cs2)C1	
	92	15				CN1CCC(NC(=O)c2cc(-n3cc(NC(=O)Nc4ccccc4Cl)cn3)cs2)CC1	89
	100	72				O=C(Nc1cnn(-c2csc(C(=O)NC3COC3)c2)c1)Nc1c(F)cccc1Cl	102
> 20	54					CN1CC[C@H](NC(=O)c2cc(-n3cc(NC(=O)Nc4ccccc4Cl)cn3)cs2)C1	94
> 20						CN1CCC[C@H]1CNC(=O)c1cc(-n2cc(NC(=O)Nc3ccccc3Cl)cn2)cs1	
> 20	66	24	Active	1080	960	O=C(Nc1cnn(-c2csc(C(=O)NC3COC3)c2)c1)Nc1ccccc1Cl	104
> 20						O=C(Nc1cnn(-c2cc(C(=O)NC3CNC3)cs2)c1)Nc1ccccc1Cl	
	49	35				O=C(Nc1cnn(-c2csc(C(=O)NC3CC3)c2)c1)Nc1ccccc1Cl	103
> 20						CC(C)N1CC[C@H](NC(=O)c2cc(-n3cc(NC(=O)Nc4ccccc4Cl)cn3)cs2)C1	
	8	15				O=C(Nc1cnn(-c2csc(C(=O)NCC3CCOCC3)c2)c1)Nc1ccccc1Cl	95
> 20						[2H]C([2H])([2H])N1CC[C@@H](NC(=O)c2cc(-n3cc(NC(=O)Nc4ccccc4Cl)cn3)cs2)C1	
> 20	33	13				O=C(Nc1cnn(-c2csc(C(=O)N[C@@H]3CCOC3)c2)c1)Nc1ccccc1Cl	112
	40	38	Active			Cc1sc(C(=O)N[C@@H]2CCOC2)cc1-n1cc(NC(=O)Nc2c(F)cccc2Cl)cn1	114
